US10071076B2, “Methods of treating cancer and other disorders” (Wake Forest University Health Sciences, priority 2010, dated 2018)

What was measured:
[1] = target: recombinant thioesterase TE1 (recombinant FASN-TE) (Homo sapiens, UniProt P49327); test: Recombinant thioesterase inhibition assay (TE1); assay type: biochemical; conditions: for inhibition at 10 µM: 10 μM compound, 30 min pre-incubation at 37° C., 4-MUH substrate; for IC50: recombinant thioesterase, approximate, read-out: approx, IC50 TE1
Description: (§1) Key to Table 2: Recombinant Thioesterase Inhibition Assay.
(§2) Briefly, recombinant FASN-TE (250 nM, 100 mM TRIS pH 7.4, 50 mM NaCl, 1 mM EDTA) was pre-incubated with inhibitors for 30 min at 37° C. prior to the addition of fluorogenic substrate, 4-methylumbelliferyl heptanoate (4-MUH, 120 μM) (56); the reaction was then monitored by following the increase in fluorescence using a Tecan Safire^2 96-well plate reader using 350/450 excitation/emission wavelengths. The IC50 values are then determined for each compound in the series.

[2] = target: recombinant thioesterase TE2 (recombinant FASN-TE) (Homo sapiens, UniProt P49327); test: Recombinant thioesterase inhibition assay (TE2); assay type: biochemical; conditions: for inhibition at 10 µM: 10 μM compound, 30 min pre-incubation at 37° C., 4-MUH substrate; for IC50: recombinant thioesterase, approximate, read-out: approx, IC50 TE2
Description: as §1, §2

[3] = system: intracellular FASN in PC3 cells; test: Inhibition of 14C-acetate incorporation in PC3 cells; assay type: cell-based; conditions: for % inhibition of 14C-acetate incorp. PC3 cells: two hours drug, then two hour labeling, concentration not given
Description: Inhibition of ^14C-Acetate Incorporation in PC3 Cells.
This test ensures that the compound(s) target intracellular FASN correctly. The ability to inhibit FASN activity in cells will be performed by metabolic labeling of newly synthesized fatty acids with ^14C-acetate, as we have described previously. Briefly, PC-3 cells were seeded in 24-well plates at 50,000 cells per well. After 48 hours media was replaced with fresh media containing either drug or DMSO vehicle. As with the toxicity assay described below, the IC50 for the ability to inhibit FASN will also be determined. Cells will be incubated with a dose of each derivative compound that reflects the IC50's determined in the MTS assays. After two hours, 1 μCi of ^14C-acetate was added to each well for a two hour labeling period. The cells are then washed with PBS and collected by trypsinization. Lipids were finally isolated by Folch extraction and quantified by scintillation counting. The IC50 value for each compound against FASN in cells can then be determined.

PC3 prostate tumor cells = test: MTS cell survival assay, PC3; assay type: cell-based; conditions: doses 1-50 μM, time point not given
Description: (§3) Prostate tumor (PC3, DU145) and normal fibroblast controls (FS-4) cells were individually seeded in 96-well plates at a density of 4,000 cells per well. After 48 hours the cells are be treated with a dose of each compound (1-50 μM) or DMSO vehicle in fresh media. Cell viability of each cell line was then determined after 24, 48 and 72 hours of treatment with each compound by MTS assay (Roche). MTS assays provide a relative measure of cell viability based on the ability of mitochondria to metabolize a tetrazolium substrate to a colored formazan product. Viability is determined by colorimetric readout at 492 nm and determined relative to vehicle only treated cells. The IC50 for each drug, at each time point, will be determined by curve fitting.

[4] = system: DU-145 prostate tumor cells; test: MTS cell survival assay, DU-145; assay type: cell-based; conditions: Homo sapiens, doses 1-50 μM, time point not given
Description: as §3

[5] = system: FS-4 normal fibroblast cells; test: MTS cell survival assay, FS-4; assay type: cell-based; conditions: FS-4 normal fibroblasts, doses 1-50 μM, time point not given
Description: as §3

Chain of recombinant thioesterase TE1 (recombinant FASN-TE) (P49327 2207-2511 limits assumed): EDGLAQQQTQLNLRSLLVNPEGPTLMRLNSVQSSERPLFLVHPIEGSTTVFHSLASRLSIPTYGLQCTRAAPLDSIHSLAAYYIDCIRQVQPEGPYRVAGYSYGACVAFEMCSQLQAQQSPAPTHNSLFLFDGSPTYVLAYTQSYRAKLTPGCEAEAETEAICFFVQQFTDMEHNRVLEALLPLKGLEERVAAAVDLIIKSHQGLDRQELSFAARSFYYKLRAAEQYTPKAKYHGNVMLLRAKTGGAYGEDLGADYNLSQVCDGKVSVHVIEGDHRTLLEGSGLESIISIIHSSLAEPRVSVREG
Chain of recombinant thioesterase TE2 (recombinant FASN-TE) (P49327 2200-2511): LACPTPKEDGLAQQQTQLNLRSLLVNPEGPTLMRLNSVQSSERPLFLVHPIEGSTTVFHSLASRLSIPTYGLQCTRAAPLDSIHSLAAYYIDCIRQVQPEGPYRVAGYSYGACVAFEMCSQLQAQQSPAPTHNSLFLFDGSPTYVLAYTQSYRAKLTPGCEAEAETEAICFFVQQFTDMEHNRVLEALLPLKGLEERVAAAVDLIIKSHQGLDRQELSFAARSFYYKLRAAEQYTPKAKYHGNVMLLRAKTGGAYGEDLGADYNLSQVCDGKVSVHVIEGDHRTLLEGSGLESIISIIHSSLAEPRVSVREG

inhibition at 10 µM [1] [%] | inhibition at 10 µM [2] [%] | IC50 [1] [µM] | IC50 [2] [µM] | IC50 ([3]; Homo sapiens, PC-3, read-out: IC50 of inhibition of 14C-acetate incorp. PC3 cells) [µM] | Structure (SMILES) | % inhibition of 14C-acetate incorp. PC3 cells [3] [%] | IC50 (PC3 prostate tumor cells) [µM] | IC50 [4] [µM] | IC50 [5] [µM]
66.6 | 95.7 | ~2.35 | ~0.56 | – | C=C1C=C(SCC)C(=O)c2c(C(=O)OCC)n[nH]c21 [TPI-00402-00-A] | 90.4 | 18.8 | 40 | 20.9
69.5 | 96.8 | ~2.78 | ~0.41 | – | CCOC(=O)c1n[nH]c2c1C(=O)C(SCC(=O)OC)=CC2=O [TPI-00405-00-A] | – | – | – | –
73.6 | 96 | – | – | – | CCOC(=O)c1n[nH]c2c1C(=O)C(SCc1cccc(F)c1)=CC2=O [TPI-00406-00-A] | 37.7 | – | – | –
53.5 | 92.2 | – | – | – | CCOC(=O)c1n[nH]c2c1C(=O)C(SCC(=O)NC)=CC2=O [TPI-00409-00-A] | 0 | – | – | –
59.6 | 91.7 | – | – | – | CCOC(=O)c1n[nH]c2c1C(=O)C(SCCCCO)=CC2=O [TPI-00410-00-A] | 1.85 | – | – | –
50.2 | 94.8 | – | – | – | CCOC(=O)c1n[nH]c2c1C(=O)C(SCCOCCOC)=CC2=O [TPI-00413-00-A] | 20.2 | – | – | –
74.8 | 97.8 | – | – | – | CCOC(=O)c1n[nH]c2c1C(=O)C(SCc1ccc(Cl)cc1)=CC2=O [TPI-00417-00-A] | 96.1 | 13.8 | – | 21
65.5 | 95.9 | – | – | – | CCOC(=O)c1n[nH]c2c1C(=O)C(SCc1ccco1)=CC2=O [TPI-00418-00-A] | 92.2 | 31.7 | – | 37
66.2 | 95.8 | – | – | – | CCCCCCCSC1=CC(=O)c2[nH]nc(C(=O)OCC)c2C1=O [TPI-00419-00-A] | 67.95 | 32 | – | 50
62 | 95.3 | – | – | – | CCOC(=O)c1n[nH]c2c1C(=O)C(SCCC(=O)OC)=CC2=O [TPI-00420-00-A] | 68.5 | 37.5 | – | 42
22.9 | 86.8 | – | – | – | CCOC(=O)c1n[nH]c2c1C(=O)C(SCC(=O)Nc1ccccc1)=CC2=O [TPI-00422-00-A] | 0 | 48 | – | > 50

Further lines, the compound ahead of its results:

Structure (SMILES) | inhibition at 10 µM [1] [%] | inhibition at 10 µM [2] [%] | IC50 [1] [µM] | IC50 [2] [µM] | IC50 ([3]; Homo sapiens, PC-3, read-out: IC50 of inhibition of 14C-acetate incorp. PC3 cells) [µM] | % inhibition of 14C-acetate incorp. PC3 cells [3] [%] | IC50 (PC3 prostate tumor cells) [µM] | IC50 [4] [µM] | IC50 [5] [µM]
COc1cc(O)c2onc(-c3ccccc3)c2c1O [TPI-00401-00-A] | 40 | 55.9 | – | – | – | 29.1 | 33 | > 50 | –
C=C1C=C(S)C(=O)c2c(C(=O)OCC)n[nH]c21 [TPI-00403-00-A] | 69.3 | 79.3 | ~3.9 | ~2.42 | 6.75 | 97 | 3.25 | 15.6 | 9.15
CCOC(=O)c1n[nH]c2c1C(=O)C(SCc1ccc(F)cc1F)=CC2=O [TPI-00407-00-A] | 66 | 94.9 | – | – | – | 37.8 | – | – | –
CCOC(=O)c1n[nH]c2c1C(=O)C(SCc1ccc(C(F)(F)F)cc1)=CC2=O [TPI-00408-00-A] | 67.9 | 96.2 | – | – | – | 89.9 | 18.5 | – | 22.5
CCOC(=O)c1n[nH]c2c1C(=O)C(Sc1ccc(-c3ccccc3)cc1)=CC2=O [TPI-00411-00-A] | 70.5 | 97.4 | – | – | – | 0.75 | – | – | –
CCOC(=O)c1n[nH]c2c1C(=O)C(Sc1cccc(OC)c1)=CC2=O [TPI-00412-00-A] | 81.6 | 98 | – | – | – | 9.95 | – | – | –
CCOC(=O)c1n[nH]c2c1C(=O)C(SC1CCCC1)=CC2=O [TPI-00414-00-A] | 52.2 | 86.4 | – | – | – | 92.4 | 25 | – | 33
CCOC(=O)c1n[nH]c2c1C(=O)C(Sc1ccccc1)=CC2=O [TPI-00415-00-A] | 79.7 | 97.5 | – | – | – | 7.05 | – | – | –
CCOC(=O)c1n[nH]c2c1C(=O)C(SCc1ccc(OC)cc1)=CC2=O [TPI-00416-00-A] | 64.3 | 96.5 | – | – | – | 89.9 | 25.8 | – | 33
CNC(=O)CSC1=CC(=O)c2[nH]ncc2C1=O [TPI-00421-00-A] | 100 | 100 | ~1.02 | – | – | 70 | 17.9 | – | 41
O=C(Nc1ccccc1)c1n[nH]c2c1C(=O)C(SCCCCO)=CC2=O [TPI-00423-00-A] | 79.8 | 98 | – | – | – | 87.25 | 20 | – | 25
O=C(Nc1ccccc1)c1n[nH]c2c1C(=O)C(SCc1ccc(C(F)(F)F)cc1)=CC2=O [TPI-00424-00-A] | 92.6 | 100 | – | – | – | 0 | 27 | – | 50
